Test results published in patent US12263248B2, “Compounds and compositions for intracellular delivery of therapeutic agents” (ModernaTX, Inc., priority 2018, dated 2025).
Marks after values point to notes of the source that are not given here.

Columns and labels:
[1] = Particle size and polydispersity index of nanoparticle compositions (Zetasizer Nano ZS); type: physicochemical; details: for PDI (Polydispersity index): lipid nanoparticle, ±SD within one assay run (Table 37)
In short: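 Values are size and PDI readings from a Zetasizer Nano ZS. Measurements are taken in 1×PBS; zeta potential, by contrast, uses 15 mM PBS.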

[2] = Encapsulation efficiency of RNA (QUANT-IT RIBOGREEN RNA assay); type: physicochemical; details: for % Encapsulation: lipid nanoparticle, ±SD within one assay run (Table 37)
In short: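 RiboGreen fluorescence (ex ~480, em ~520 nm) compared between intact samples and Triton X-100-lysed samples after 15 min at 37 °C in TE buffer, pH 7.5. Percent free RNA is the blank-corrected intact/disrupted ratio.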

[3] = Apparent (surface) pKa of the LNP formulation (TNS assay); type: physicochemical
In short: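 Fluorescence of TNS probe added to LNP samples (mRNA 0.04 mg/mL) was read across 21 buffers of pH about 3-12, triplicate per pH. The inflection point of the sigmoidal fluorescence-vs-pH curve, […], gives apparent pKa; method validated in 1× PBS and Tris/sucrose buffer.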

[4] = Lipid clearance: lipid level in mouse liver tissue (LC-MS/MS); type: in vivo; details: for % dose remaining Mouse liver tissue, 24 h: CD-1 mouse liver 24 h after 0.5 mg/kg bolus dose mRNA, n = 5 ± S.D.; for % Dose Remaining in Liver 6 h: Table 3D
Experimental: Quantification of Lipid by LC-MS/MS: Liver samples were homogenized following addition of 19 eq. (w/v) of water (DF=20). Protein was precipitated and analyzed against calibration standards prepared in matching blank. Chromatographic separation and quantification was accomplished with a LC-MS/MS System. Samples were injected and separated via HPLC A triple-quadrupole MS/MS system operated in positive ion mode was used for signal detection.

hEPO mRNA = assay: hEPO expression after intramuscular administration to mice; type: in vivo; details: for Fold increase in hEPO concentration relative to MC3: mice, 0.01 mpk, 6 hr time point
sC5b-9 = assay: Complement activation in vitro (sC5b-9 levels); type: cell-based; details: human cells contacted in vitro
In short: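 Human cells exposed in vitro to nanoparticle compositions, with the soluble terminal complement complex sC5b-9 measured as a marker of complement activation.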

IP-10 = assay: Cytokine induction in rats after intravenous administration; type: in vivo, rat; details: for IP-10 induction: rat, 48 hours after administration; for IP-10: rats, 2.0 mpk, 6 hours, hEPO nanoparticle compositions
Experimental: The expression of hEPO and cytokine induction in rats intravenously administered a nanoparticle composition at a dose of 2.0 mpk was measured at 6 h.
Table 19A summarizes the hEPO expression, IP-10 induction, liver and spleen levels, and alanine aminotransferase (ALT) and aspartate aminotransferase (AST) measured upon intravenous administration of formulations including Compounds 48, 49, and 50 to rat at 0.2 and 2 mpk and hEPO mRNA. hEPO concentrations were measured 6 hours after administration, while cytokine induction and liver and spleen levels were measured 48 hours after administration. hEPO and IP-10 concentrations are presented in pg/ml, while liver levels are provided in ng/g. ALT and AST levels are presented in international units.

luciferase mRNA = assay: Luciferase expression after subcutaneous administration to mice; type: in vivo, female CD-1 mice; details: for Lipid/MC3 AUC ratio: luciferase; for AUC (luciferase expression): whole body BLI
In short: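 Female CD-1 mice given luciferase mRNA in lipid nanoparticle formulations subcutaneously at 0.5 mpk. Expression read by whole-body bioluminescence imaging at 3, 6 and 24 h, with ex vivo liver, spleen and injection-site luminescence at 24 h.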

[5] = Chemical stability of lipids in ethanol (lipid purity); type: physicochemical
In short: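 Lipid chemical stability was assessed as lipid purity after storage in ethanol at room temperature and at 37° C.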

[6] = Table 1A, lipid:DSPC:cholesterol:PEG-DMG 50:10:38.5:1.5 mol %
[7] = Table 1B, formulated with hEPO mRNA
[8] = Table 1C, compositions for subcutaneous administration
[9] = Table 1D, for subcutaneous administration, # formulated with hEPO mRNA
[10] = Table 1E, compositions for subcutaneous administration
[11] = lipid:DSPC:Chol:PEG-DMG (50:10:38.5:1.5), hEPO mRNA
[12] = nanoparticle composition with hEPO mRNA (Table 30)
[13] = lipid nanoparticle, ±SD within one assay run (Table 37)
[14] = nanoparticle composition with mRNA encoding anti-HA antibody (Table 33)
[15] = nanoparticle of rat tolerability study (Table 43)

Q: What does the source list for `CCCCC/C=C\C/C=C\CCCCCCCCC(CCCCCCCC/C=C\C/C=C\CCCCC)OC(=O)CCCN(C)C` [MC3, DLin-MC3-DMA, reference compound]?
A: PDI ([1]; Table 1A): 0.11; Size (nm) [1, 6]: 79.7 nm; PDI [1, 7]: 0.12; Size (nm) [1, 7]: 57.7 nm; PDI [1, 8]: 0.09; Size (nm) [1, 8]: 56.9 nm; PDI [1, 9]: 0.15; Size (nm) [1, 9]: 69.1 nm; PDI [1, 10]: 0.10; Size (nm) [1, 10]: 62.4 nm; PDI (Polydispersity index) [1]: 0.11 ± 0.04; PDI [1, 11]: 0.114; PDI [1, 12]: 0.220; EE (%) ([2]; Table 1A): 97.3%; EE (%) [2, 7]: 99.01%; % EE [2, 8]: 98.2%; % EE [2, 9]: 98.7%; % EE [2, 10]: 98%; % Encapsulation [2]: 97.3 ± 1.9%; EE [2, 11]: 97.22%; EE [2, 12]: 91.66%; Apparent pKa [3, 7]: 6.35; pKa [3, 13]: 6.30 ± 0.03; % dose remaining Mouse liver tissue, 24 h [4]: 71 ± 27%; % Dose Remaining in Liver 6 h ([4]; second column (head also says 6 h), intravenous): 54%; % Dose Remaining in Liver 6 h ([4]; intravenous): 80%; Mouse liver tissue level (ng/g) 6 h ([4]; Table 3E, intravenous, 6 h): 85400 ng/g; Mouse liver tissue level (ng/g) 24 h ([4]; Table 3E, intravenous, 24 h): 67433 ng/g; % Remaining dose at 6 h ([4]; Table 3E, mouse liver, 6 h): >98%; % Remaining dose at 24 h ([4]; Table 3E, mouse liver, 24 h): 79.7%; Fold increase in hEPO concentration relative to MC3 (hEPO mRNA): 1; Fold increase in sC5b-9 levels versus saline (sC5b-9): 0.73; IP-10 induction (IP-10; 0.2 mpk): 2 pg/mL; IP-10 induction (IP-10; 2 mpk): 596 pg/mL; IP-10 (IP-10): 688.3 pg/mL; Lipid/MC3 AUC ratio (luciferase mRNA; 0.5 mpk): 1; AUC (luciferase expression) (luciferase mRNA; 0.5 mpk): 1.7127E+10 (p/s) * h

Q: For `CCCCCCCCCCCOC(=O)CCCCCN(CCO)CCCCCCCC(=O)OC(CCCCCCCC)CCCCCCCC` [Compound 25, Heptadecan-9-yl 8-((2-hydroxyethyl)(6-oxo-6-(undecyloxy)hexyl)amino)octanoate], which PDI ([1]; Table 1A) is on record?
A: 0.10

Q: And the “Size (nm)” value [1, 6]?
A: 85.8 nm

Q: What about the PDI [1, 7] of the same molecule?
A: 0.14

Q: What about the “Size (nm)” value [1, 7] of the same molecule?
A: 69.7 nm

Q: And the PDI [1, 8]?
A: 0.16

Q: What about the “Size (nm)” value [1, 8] of the same molecule?
A: 76.3 nm

Q: What about the PDI [1, 9] of the same molecule?
A: 0.13

Q: And the “Size (nm)” value [1, 9]?
A: 77.6 nm

Q: What about the “PDI (Polydispersity index)” value [1] of the same molecule?
A: 0.10 ± 0.05

Q: What about the PDI [1, 12] of the same molecule?
A: 0.230

Q: And the “EE (%)” value ([2]; Table 1A)?
A: 95.80%

Q: What about the “EE (%)” value [2, 7] of the same molecule?
A: 97.92%

Q: And the “% EE” value [2, 8]?
A: 98.1%

Q: And the “% EE” value [2, 9]?
A: 97.8%

Q: What about the “% Encapsulation” value [2] of the same molecule?
A: 95.8 ± 1.0%

Q: And the EE [2, 12]?
A: 87.01%

Q: And the pKa ([3]; Table 1A)?
A: 6.68

Q: And the pKa [3, 13]?
A: 6.68 ± 0.29

Q: And the “Fold increase in hEPO concentration relative to MC3” value (hEPO mRNA)?
A: 7.1

Q: What about the “Novel lipid/MC3 ratio, 6 hr. timepoint, i.m. hEPO” value (hEPO mRNA; relative to MC3, Table 3G) of the same molecule?
A: 7.1

Q: What about the “Fold increase in sC5b-9 levels versus saline” value (sC5b-9) of the same molecule?
A: 1.02

Q: What about the IP-10 (IP-10) of the same molecule?
A: 533.5 pg/mL

Q: And the “Novel lipid/MC3 expression ratio, s.c. Luc 0.5 mpk (AUC)” value (luciferase mRNA; 0.5 mpk, AUC, relative to MC3)?
A: (AUC: 1.7)

Q: What about the “Lipid/MC3 AUC ratio” value (luciferase mRNA; 0.5 mpk) of the same molecule?
A: 1.70

Q: And the “AUC (luciferase expression)” value (luciferase mRNA; 0.5 mpk)?
A: 2.9156E+10 (p/s) * h

Q: What about the “Novel lipid/MC3 ratio, s.c. Luc 6 hr.” value (luciferase mRNA; 6 hr., relative to MC3, Table 3G) of the same molecule?
A: 1.73

Q: And the “Lipid Purity” value ([5]; t = 0)?
A: 95.58%

Q: And the “Lipid Purity” value ([5]; t = 96 h, 25° C.)?
A: 96.23%

Q: What about the “Lipid Purity” value ([5]; t = 96 h, 37° C.) of the same molecule?
A: 96.13%

Q: With `CCCCCCCCCOC(=O)CCCCCCCN(CCO)CCCCCCCC(=O)OC(CCCCCCCC)CCCCCCCC` [Compound 18, Heptadecan-9-yl 8-((2-hydroxyethyl)(8-(nonyloxy)-8-oxooctyl)amino)octanoate] as the molecule, how does the PDI ([1]; Table 1A) read?
A: 018

Q: And the “Size (nm)” value [1, 6]?
A: 87.9 nm

Q: What about the PDI [1, 7] of the same molecule?
A: 0.14

Q: And the “Size (nm)” value [1, 7]?
A: 73.7 nm

Q: And the PDI [1, 9]?
A: 0.11

Q: And the “Size (nm)” value [1, 9]?
A: 75.0 nm

Q: And the “PDI (Polydispersity index)” value [1]?
A: 0.04 ± 0.06

Q: And the PDI [1, 11]?
A: 0.095

Q: And the PDI [1, 12]?
A: 0.230

Q: What about the Diameter [1, 14] of the same molecule?
A: 76.8 nm

Q: And the PDI [1, 14]?
A: 0.16

Q: And the Diameter [1, 15]?
A: 80 nm

Q: What about the PDI [1, 15] of the same molecule?
A: 0.19

Q: And the “EE (%)” value ([2]; Table 1A)?
A: 95.9%

Q: What about the “EE (%)” value [2, 7] of the same molecule?
A: 96.95%

Q: What about the “% EE” value [2, 9] of the same molecule?
A: 96.2%

Q: What about the “% Encapsulation” value [2] of the same molecule?
A: 97.5 ± 0.2%

Q: And the EE [2, 11]?
A: 97.34%

Q: What about the EE [2, 12] of the same molecule?
A: 85.56%

Q: And the EE [2, 14]?
A: 79.3%

Q: And the “% EE” value [2, 15]?
A: 91%

Q: What about the pKa ([3]; Table 1A) of the same molecule?
A: 6.56

Q: What about the pKa ([3]; Table 6) of the same molecule?
A: 6.56

Q: And the pKa [3, 13]?
A: 6.56 ± 0.13

Q: And the “% dose remaining Mouse liver tissue, 24 h” value [4]?
A: 0%

Q: What about the “original dose remaining in liver tissue 24 hours post dose” value ([4]; mice, intravenous) of the same molecule?
A: no lipid detected

Q: And the “Fold increase in hEPO concentration relative to MC3” value (hEPO mRNA)?
A: 8.6

Q: And the “Fold increase in sC5b-9 levels versus saline” value (sC5b-9)?
A: 1.28

Q: And the “sC5b-9 levels relative to saline” value (sC5b-9; in words)?
A: somewhat increase

Q: What about the IP-10 (IP-10) of the same molecule?
A: 517.3 pg/mL

Q: And the “Novel lipid/MC3 expression ratio, 6 hr. time point, s.c. Luc 0.05 mpk” value (luciferase mRNA; 0.05 mpk, relative to MC3)?
A: 2.63

Q: What about the “Lipid Purity” value ([5]; t = 0) of the same molecule?
A: 94.37%

Q: What about the “Lipid Purity” value ([5]; t = 96 h, 25° C.) of the same molecule?
A: 94.71%

Q: And the “Lipid Purity” value ([5]; t = 96 h, 37° C.)?
A: 95.01%
